Assay results published in patent publication US20240173432A1, “Compositions and Methods for Treatment of Myotonic Dystrophy Type 1 with CRISPR/SluCas9” (Vertex Pharmaceuticals Incorporated, priority 2021, published 2024).

What was measured:
[1] = system: CUG foci in primary DM1 patient myoblasts; assay: Dual-cut screening: FISH staining of CUG RNA foci; assay type: cell-based, human; settings: sgRNA pair, primary DM1 patient myoblasts; for % of CUG foci free nuclei (DNA-PKi): 3 μM DNA-PKi Compound 6 for 48 hours; for % of CUG foci free nuclei (Vehicle): vehicle (DMSO)
Summary of the method: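 SluCas9 RNPs (protein:sgRNA 1:3; 20 pmol SluCas9 + 60 pmol sgRNA per guide, paired 1:1) nucleofected into primary DM1 patient myoblasts, then DMSO or 3 μM DNA-PKi Compound 6 for 48 h. At 72 h post-nucleofection cells fixed, FISH-stained with Cy3-PNA(CAG)5 probe plus anti-MBNL1 and Hoechst; % CUG foci-free nuclei by high-content confocal imaging.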

[2] = system: CTG repeat in the 3′ UTR of human DMPK gene; assay: Dual-cut screening: CTG repeat excision efficiency by loss-of-signal ddPCR; assay type: cell-based; settings: sgRNA pair, primary DM1 patient myoblasts; for Excision efficiency (by ddPCR): 3 μM DNA-PKi Compound 6 for 48 hours; for Excision efficiency by ddPCR (Vehicle): vehicle (DMSO)
Procedure: RNPs were assembled with recombinant SluCas9 protein and chemically modified sgRNAs at a ratio of 1:3 (protein:sgRNA). For SINGLE-cut screening, RNP complexes were assembled with 30 pmol of SluCas9 and 90 pmol of sgRNA in P5 Primary Cell Nucleofector Solution (Lonza). After incubation at room temperature for 20 minutes, 10 μL of RNP complex were mixed with two hundred thousand of primary myoblasts resuspended in 10 μL of P5 Nucleofector Solution. For DOUBLE-cut screening, RNP complexes were first assembled for individual sgRNAs with 20 pmol of SluCas9 protein and 60 pmol of sgRNAs in 5 μL of P5 Nucleofector Solution. After incubation at room temperature for 20 minutes, the two RNP complexes (one for upstream sgRNA and one for downstream sgRNA) were mixed at 1:1 ratio and then further mixed with two hundred thousand of primary myoblasts resuspended in 10 μL of P5 Nucleofector Solution.
The Nucleofector 96-well Shuttle System (Lonza) was used to deliver the SluCa9/sgRNA RNPs into primary DM1 patient myoblasts using the nucleofection program CM138. Following nucleofection, myoblasts from each well of nucleofection shuttle were split into six wells of the 96-well cell culture plate (Greiner, 655090) coated with matrigel. The first three wells were treated with DMSO for 48 hrs before changing to fresh myoblast growth medium, and the other three wells were treated with 3 μM of DNA-PKi Compound 6 for 48 hrs before changing to fresh myoblast growth medium. 72 hrs post nucleofection, two wells of DMSO-treated myoblasts and two wells of DNA-PKi-treated myoblasts from each nucleofection were harvested for genomic DNA extraction using the Kingfisher Flex purification system (Thermal Fisher), whereas one well of DMSO-treated myoblasts and one well of DNA-PKi-treated myoblasts were stained for RNA foci by FISH staining.
The primers and probes of ddPCR are designed using the online primer design software Primer3Plus (http://www.bioinformatics.nl/cgi-bin/primer3plus/primer3plus.cgi). In some embodiments, two target primers/probe sets were used to detect CTG repeat excision, and a reference primers/probe set were used to amplify a region located in Exon 1 of human DMPK gene and to serve as a reference control for the target sets. The 24 μL of ddPCR reaction consists of 12 μL of Supermix for Probes (no dUTP) (Bio-Rad Laboratories), 1 μL of Reference primers mix (21.6 μM), 1 μL of Reference probe (6 μM), 1 μL of Target primers mix (21.6 μM), 1 μL of Target probe (6 μM), and 8 μL of sample genomic DNA. Droplets were generated using probe oil with the QX200 Droplet Generator (Bio-Rad Laboratories). Droplets were transferred to a 96-well PCR plate, sealed and cycled in a C1000 deep well Thermocycler (Bio-Rad Laboratories) under the following cycling protocol: 1 cycle at 95° C. for 10 min; 40 cycles of 94° C. for 30 see, and 58° C. for 1 min; 1 cycle at 98° C. for 10 min (for enzyme inactivation). The cycled plate was then transferred and read in the FAM and HEX channels using the Bio-Rad QX200 Droplet Reader (Bio-Rad Laboratories). ddPCR analysis is performed with the Bio-Rad QuantaSoft Pro Software.
To assess the efficiency of SluCas9 sgRNA pairs for inducing CTG repeat excision, Dual-cut screening was performed in which individual SluCas9 sgRNAs and recombinant SluCas9 protein were assembled into ribonucleoprotein (RNP) and delivered into primary DM1 patient myoblasts. Nucleofected myoblasts were treated with either DMSO (vehicle) or 3 μM of DNA-dependent Protein Kinase Inhibitor (DNA-PKi) Compound 6 for 48 hours. 72 hours post-nucleofection, myoblasts were subjected to either genomic DNA isolation or RNA foci staining by fluorescence in situ hybridization (FISH).
CRISPR repeat excision efficiency was assessed for each of the 88 pairs (FIG. 8A-B and Table 5). CTG repeat excision efficiency percentages are shown for vehicle (DMSO; white bars) and with DNA-PKi (black bars) (FIG. 8B and Table 5).

Row | Substance | % of CUG foci free nuclei (DNA-PKi) [1] | % of CUG foci free nuclei (Vehicle) [1] | Excision efficiency (by ddPCR) [2] | Excision efficiency by ddPCR (Vehicle) [2]
1 | SluU59 + SluD100 (guide 1 CGCGGCCGGCGAACGGGGCTCG; guide 2 GTCCAGAGCTTTGGGCAGATGG; guide RNA; listed as DNA, chemistry not fully specified) | 90.09% | 62.45% | 68.69 | 37.61
2 | SluU10 + SluD06 (guide 1 CCCGTTGGAAGACTGAGTGCCC; guide 2 CCAGGCTGAGGCCCTGACGTGG; guide RNA; listed as DNA, chemistry not fully specified) | 86.35% | 61.37% | 63.05 | 48.58
3 | SluU62 + SluD48 (guide 1 AGGACCCTTCGAGCCCCGTTCG; guide 2 GAGAGCAGCGCAAGTGAGGAGG; guide RNA; listed as DNA, chemistry not fully specified) | 88.08% | 54.22% | 66.36 | 35.6
4 | SluU21 + SluD73 (guide 1 GCTCGGAGCGGTTGTGAACTGG; guide 2 CCAAAACGTGGATTGGGGTTGT; guide RNA; listed as DNA, chemistry not fully specified) | 88.18% | 51.12% | 61.57 | 36.17
5 | SluU10 + SluD73 (guide 1 CCCGTTGGAAGACTGAGTGCCC; guide 2 CCAAAACGTGGATTGGGGTTGT; guide RNA; listed as DNA, chemistry not fully specified) | 88.46% | 69.97% | 64.77 | 46.13
6 | SluU62 + SluD83 (guide 1 AGGACCCTTCGAGCCCCGTTCG; guide 2 GTGGGGACAGACAATAAATACC; guide RNA; listed as DNA, chemistry not fully specified) | 88.94% | 56.65% | 68.69 | 43.14
7 | SluU06 + SluD06 (guide 1 TGTCTTCGACTCCGGGGCCCCG; guide 2 CCAGGCTGAGGCCCTGACGTGG; guide RNA; listed as DNA, chemistry not fully specified) | 87.02% | 62.81% | 57.64 | 42.65
8 | SluU06 + SluD18 (guide 1 TGTCTTCGACTCCGGGGCCCCG; guide 2 TGGAGGATGGAACACGGACGGC; guide RNA; listed as DNA, chemistry not fully specified) | 87.79% | 69.25% | 64.53 | 45.61
9 | SluU08 + SluD56 (guide 1 GCCCCGTTGGAAGACTGAGTGC; guide 2 CCAGCCGGCTCCGCCCGCTTCG; guide RNA; listed as DNA, chemistry not fully specified) | 83.74% | 46.21% | 52.26 | 32.16
10 | SluU64 + SluD34 (guide 1 GGGCTCGAAGGGTCCTTGTAGC; guide 2 CGCGCCAGACGCTCCCCAGAGC; guide RNA; listed as DNA, chemistry not fully specified) | 91.45% | 83.68% | 79.91 | 76.35
11 | SluU08 + SluD73 (guide 1 GCCCCGTTGGAAGACTGAGTGC; guide 2 CCAAAACGTGGATTGGGGTTGT; guide RNA; listed as DNA, chemistry not fully specified) | 89.94% | 65.42% | 67.61 | 50.12
12 | SluU64 + SluD32 (guide 1 GGGCTCGAAGGGTCCTTGTAGC; guide 2 CTTGTGCATGACGCCCTGCTCT; guide RNA; listed as DNA, chemistry not fully specified) | 89.99% | 77.6% | 85.56 | 60.75
13 | SluU06 + SluD73 (guide 1 TGTCTTCGACTCCGGGGCCCCG; guide 2 CCAAAACGTGGATTGGGGTTGT; guide RNA; listed as DNA, chemistry not fully specified) | 88.37% | 65.15% | 63.29 | 43.4
14 | SluU10 + SluD83 (guide 1 CCCGTTGGAAGACTGAGTGCCC; guide 2 GTGGGGACAGACAATAAATACC; guide RNA; listed as DNA, chemistry not fully specified) | 89.5% | 74.17% | 68.8 | 47.63
15 | SluU62 + SluD34 (guide 1 AGGACCCTTCGAGCCCCGTTCG; guide 2 CGCGCCAGACGCTCCCCAGAGC; guide RNA; listed as DNA, chemistry not fully specified) | 88.29% | 64.71% | 64.95 | 48.18
16 | SluU06 + SluD83 (guide 1 TGTCTTCGACTCCGGGGCCCCG; guide 2 GTGGGGACAGACAATAAATACC; guide RNA; listed as DNA, chemistry not fully specified) | 89.45% | 66.03% | 66.18 | 46.13
